Data on 36 compounds can be found in US6495559B2, “NPY Y5 receptor antagonists” (Merck & Co., Inc., priority 1998, dated 2002).

The structures appear in SMILES notation.

By melting point is commonly meant the temperature, or range, at which the solid turns liquid. `CS(=O)(=O)N1CC2(CCN(C(=O)Nc3ccc(-c4ccncc4)cc3)CC2)c2ccccc21` displayed a melting point of 272 to 274 °C.

In turn, `CCc1cc(-c2ccc(NC(=O)N3CCC4(CC3)CN(S(C)(=O)=O)c3ccccc34)cc2)ccn1.Cl` gave a melting point of 220 to 222 °C.

With `CS(=O)(=O)N1CC2(CCN(C(=O)Nc3ccc(C(=O)c4ccccc4)cc3)CC2)c2ccccc21.Cl`, the melting point was in the range of 222 to 225 °C.

For the compound `CS(=O)(=O)N1CC2(CCN(C(=O)Nc3cc(-c4ccccc4)no3)CC2)c2ccccc21`, the melting point is 235 to 237 °C.

On to `CCS(=O)(=O)N1CC2(CCN(C(=O)Nc3cn(-c4ccccc4)cn3)CC2)c2ccccc21.Cl`, for which the melting point lay within 139 to 140 °C.

`CCS(=O)(=O)N1CC2(CCN(C(=O)Nc3cn(-c4ccccc4)cn3)CC2)c2cc(F)ccc21.Cl` came in with a melting point of 140 to 141 °C.

In the case of `CS(=O)(=O)N1CC2(CCN(C(=O)Nc3cnc(-c4cccc(F)c4)cn3)CC2)c2ccccc21` [Compound 101, N-[5-(3-fluorophenyl)-2-pyrazinyl]-1-methylsulfonylspiro[indoline-3,4′-piperidine]-1′-carboxamide], the melting point was 203 to 205 °C.

For the compound `COc1ccccc1-c1cnc(NC(=O)N2CCC3(CC2)CN(S(C)(=O)=O)c2ccccc23)cn1` [Compound 102, N-[5-(2-methoxyphenyl)-2-pyrazinyl]-1-methylsulfonylspiro[indoline-3,4′-piperidine]-1′-carboxamide], the melting point is 186 to 188 °C.

As to `CS(=O)(=O)N1CC2(CCN(C(=O)Nc3cnc(-c4ccccc4Cl)cn3)CC2)c2ccccc21` [Compound 103, N-[5-(2-chlorophenyl)-2-pyrazinyl]-1-methylsulfonylspiro[indoline-3,4′-piperidine]-1′-carboxamide], the melting point lay within 197 to 199 °C.

As to `CS(=O)(=O)N1CC2(CCN(C(=O)Nc3cnc(-c4ccccn4)cn3)CC2)c2ccccc21` [Compound 104, 1-methylsulfonyl-N-[5-(2-pyridyl)-2-pyrazinyl]spiro[indoline-3,4′-piperidine]-1′-carboxamide], the melting point lay within 234 to 235 °C.

The compound `C=CCc1cnc(NC(=O)N2CCC3(CC2)CN(S(C)(=O)=O)c2ccccc23)cn1` [Compound 105, 1-methylsulfonyl-N-[5-(2-propenyl)-2-pyrazinyl]spiro[indoline-3,4′-piperidine]-1′-carboxamide] returned a melting point of 180.5 to 182.7 °C.

For `CCc1nc(-c2ccc(NC(=O)N3CCC4(CC3)CN(S(C)(=O)=O)c3ccccc34)cc2)cs1` [Compound 107, N-[4-(2-ethyl-4-thiazolyl)phenyl]-1-methylsulfonylspiro[indoline-3,4′-piperidine]-1′-carboxamide], the melting point is 242 to 242.5 °C.

`CS(=O)(=O)N1CC2(CCN(C(=O)Nc3ccc(-c4nccs4)cc3)CC2)c2ccccc21` [Compound 111, 1-methylsulfonyl-N-[4-(2-thiazolyl)phenyl]spiro[indoline-3,4′-piperidine]-1′-carboxamide] had a melting point of 143.2 to 147.4 °C.

Regarding `CS(=O)(=O)N1CC2(CCN(C(=O)Nc3ccc(-c4ccccc4)cn3)CC2)c2ccccc21` [Compound 112, 1-methylsulfonyl-N-(5-phenyl-2-pyridyl)spiro[indoline-3,4′-piperidine]-1′-carboxamide], the melting point stood at 214 °C.

`CS(=O)(=O)N1CC2(CCN(C(=O)Nc3cnc(-c4ccccc4)nc3)CC2)c2ccccc21` [Compound 113, 1-methylsulfonyl-N-(2-phenyl-5-pyrimidinyl)spiro[indoline-3,4′-piperidine]-1′-carboxamide] showed a melting point of 251 to 253 °C.

Compound `CS(=O)(=O)N1CC2(CCN(C(=O)Nc3ccc(-c4ccccc4)nc3)CC2)c2ccccc21` [Compound 114, 1-methylsulfonyl-N-(2-phenyl-5-pyridyl)spiro[indoline-3,4′-piperidine]-1′-carboxamide] displayed a melting point of 224 °C.

For the compound `CS(=O)(=O)N1CC2(CCN(C(=O)Nc3ncc(-c4ccccc4)cn3)CC2)c2ccccc21` [Compound 115, 1-methylsulfonyl-N-(5-phenyl-2-pyrimidinyl)spiro[indoline-3,4′-piperidine]-1′-carboxamide], the melting point was in the range of 122 to 123 °C.

`CS(=O)(=O)N1CC2(CCN(C(=O)Nc3ccc(N4CCCC4)nc3)CC2)c2ccccc21` [Compound 116, 1-methylsulfonyl-N-[2-(1-pyrrolidinyl)-5-pyridyl]spiro[indoline-3,4′-piperidine]-1′-carboxamide] came in with a melting point of 252 to 254 °C.

Turning to `CS(=O)(=O)N1CC2(CCN(C(=O)Nc3nc(-c4ccccc4)co3)CC2)c2ccccc21` [Compound 119, 1-methylsulfonyl-N-(4-phenyloxazol-2-yl)spiro[indoline-3,4′-piperidine]-1′-carboxamide], the melting point was 189 to 192 °C.

`CS(=O)(=O)N1CC2(CCN(C(=O)Nc3nsc(-c4ccccc4)n3)CC2)c2ccccc21` [Compound 123, 1-methylsulfonyl-N-(5-phenyl-1,2,4-thiadiazol-3-yl)spiro[indoline-3,4′-piperidine]-1′-carboxamide] registered a melting point of 133 to 136 °C.

Consider `COc1cccc(-n2cnc(NC(=O)N3CCC4(CC3)CN(S(C)(=O)=O)c3ccccc34)c2)c1` [Compound 126, N-[1-(3-methoxyphenyl)imidazol-4-yl]-1-methylsulfonylspiro[indoline-3,4′-piperidine]-1′-carboxamide], for which the melting point fell in the range of 216 to 218 °C.

Turning to `CS(=O)(=O)N1CC2(CCN(C(=O)Nc3cn(-c4cccc(Cl)c4)cn3)CC2)c2ccccc21` [Compound 127, N-[1-(3-chlorophenyl)imidazol-4-yl]-1-methylsulfonylspiro[indoline-3,4′-piperidine]-1′-carboxamide], the melting point was in the range of 232 to 234 °C.

In turn, `COc1cccc2oc(NC(=O)N3CCC4(CC3)CN(S(C)(=O)=O)c3ccccc34)nc12` [Compound 128, N-(4-methoxybenzoxazol-2-yl)-1-methylsulfonylspiro[indoline-3,4′-piperidine]-1′-carboxamide] yielded a melting point of 195 to 199 °C.

In turn, `CS(=O)(=O)N1CC2(CCN(C(=O)Nc3nc4cc(F)ccc4s3)CC2)c2ccccc21` [Compound 129, N-(5-fluorobenzothiazol-2-yl)-1-methylsulfonylspiro[indoline-3,4′-piperidine]-1′-carboxamide] had a melting point of 243 to 244 °C.

`Cc1ccc2nc(NC(=O)N3CCC4(CC3)CN(S(C)(=O)=O)c3ccccc34)cnc2c1` [Compound 130, 1-methylsulfonyl-N-(6-methylquinoxalin-2-yl)spiro[indoline-3,4′-piperidine]-1′-carboxamide] came in with a melting point of 224 to 225 °C.

Compound `Cc1cccc2ccc(NC(=O)N3CCC4(CC3)CN(S(C)(=O)=O)c3ccccc34)nc12` [Compound 131, 1-methylsulfonyl-N-(8-methylquinolin-2-yl)spiro[indoline-3,4′-piperidine]-1′-carboxamide] had a melting point of 219 to 220 °C.

In turn, `CS(=O)(=O)N1CC2(CCN(C(=O)Nc3cnc4ccc(Cl)cc4n3)CC2)c2ccccc21` [Compound 132, N-(7-chloroquinoxalin-2-yl)-1-methylsulfonylspiro[indoline-3,4′-piperidine]-1′-carboxamide] had a melting point of 213 to 214 °C.

In the case of `COc1ccc2oc(NC(=O)N3CCC4(CC3)CN(S(C)(=O)=O)c3ccccc34)nc2c1` [Compound 134, N-(5-methoxybenzoxazol-2-yl)-1-methylsulfonylspiro[indoline-3,4′-piperidine]-1′-carboxamide], the melting point lay within 194 to 196 °C.

`CS(=O)(=O)N1CC2(CCN(C(=O)Nc3cc4cc(Cl)ccc4[nH]3)CC2)c2ccccc21` [Compound 135, N-(5-chlorobenzoazol-2-yl)-1-methylsulfonylspiro[indoline-3,4′-piperidine]-1′-carboxamide] displayed a melting point of 172 to 176 °C.

`Cc1cccc2sc(NC(=O)N3CCC4(CC3)CN(S(C)(=O)=O)c3ccccc34)nc12` [Compound 137, N-(4-methylbenzothiazol-2-yl)-1-methylsulfonylspiro[indoline-3,4′-piperidine]-1′-carboxamide] returned a melting point of 182 to 183 °C.

In turn, `CS(=O)(=O)N1CC2(CCN(C(=O)Nc3cnc(-c4ccccc4)cn3)CC2)c2ccc(F)cc21` [Compound 139, 6-fluoro-1-methylsulfonyl-N-(5-phenyl-2-pyrazinyl)spiro[indoline-3,4′-piperidine]-1′-carboxamide] yielded a melting point of 234 to 237 °C.

`CCS(=O)(=O)N1CC2(CCN(C(=O)Nc3cc(-c4ccc(Cl)cc4)on3)CC2)c2ccccc21` [Compound 143, N-[5-(4-chlorophenyl)isoxazol-3-yl]-1-ethylsulfonylspiro[indoline-3,4′-piperidine]-1′-carboxamide] showed a melting point of 178.3 to 178.5 °C.

In turn, `CS(=O)(=O)N1CC2(CCN(C(=O)Nc3cnc(-c4nncs4)cn3)CC2)c2ccccc21` [Compound 146, 1-methylsulfonyl-N-[5-(1,3,4-thiadiazol-2-yl)-2-pyrazinyl]spiro[indoline-3,4′-piperidine]-1′-carboxamide] came in with a melting point of 247 to 249 °C.

`CS(=O)(=O)N1CC2(CCN(C(=O)Nc3cnc(-c4ncns4)cn3)CC2)c2ccccc21` [Compound 147, 1-methylsulfonyl-N-[5-(1,2,4-thiadiazol-5-yl)-2-pyrazinyl]spiro[indoline-3,4′-piperidine]-1′-carboxamide] came in with a melting point of 234 to 238 °C.

In the case of `CS(=O)(=O)N1CC2(CCN(C(=O)Nc3cnc(-c4nncs4)cn3)CC2)c2ccc(F)cc21` [Compound 148, 6-fluoro-1-methylsulfonyl-N-[5-(1,3,4-thiadiazol-2-yl)-2-pyrazinyl]spiro[indoline-3,4′-piperidine]-1′-carboxamide], the melting point was in the range of 242 to 243 °C.

`CS(=O)(=O)N1CC2(CCN(C(=O)Nc3cnc(-c4ncns4)cn3)CC2)c2ccc(F)cc21` [Compound 149, 6-fluoro-1-methylsulfonyl-N-[5-(1,2,4-thiadiazol-5-yl)-2-pyrazinyl]spiro[indoline-3,4′-piperidine]-1′-carboxamide]: the melting point is 237 to 239 °C.
